Results from paper PMC10794144, “A novel antibiotic class targeting the lipopolysaccharide transporter” (Nature, 2024).
In brackets after ≈: the same amount, converted by molar mass.

Test system: A. baumannii
Experiment: microbe, parasite or virus in culture
Outline: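 Values come from CLSI-guided (M07, M100) broth microdilution in CAMHB. Endpoint: lowest concentration halting growth, judged by naked eye or by OD600 plateau.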

SMILES: CN1C(=O)[C@H](CCCCN)NC(=O)[C@H](CCCN)NCc2cccnc2Sc2c(Cl)ccc(Cl)c2CNC(=O)[C@@H]1Cc1c[nH]c2ccccc12 [RO7075573]
- MIC 100% (ROB08702, Study LGC286210): >64 µg/mL
- MIC 80% (ROB08702, Study LGC293598): 0.12 µg/mL (≈ 0.162 µM)
- MIC 100% (ROB08702, Study LGC293598): >64 µg/mL
- MIC 80% (ROB08702, Study LGC294355): 0.12 µg/mL (≈ 0.162 µM)
- MIC 100% (ROB08702, Study LGC294355): >64 µg/mL
- MIC 80% (ROB08702, Study LGC295147): 0.12 µg/mL (≈ 0.162 µM)
- MIC 100% (ROB08702, Study LGC295147): 64 µg/mL (≈ 86.5 µM)
- MIC 80% (ROB08702, Study LGC296813): 0.12 µg/mL (≈ 0.162 µM)
- MIC 100% (ROB08702, Study LGC296813): 64 µg/mL (≈ 86.5 µM)
- MIC 80% (ROB08702, Study LGC299544): 0.12 µg/mL (≈ 0.162 µM)
- MIC 100% (ROB08702, Study LGC299544): 64 µg/mL (≈ 86.5 µM)
- MIC 80% (ROB08702, Study LGC301026): 0.12 µg/mL (≈ 0.162 µM)
- MIC 100% (ROB08702, Study LGC301026): 64 µg/mL (≈ 86.5 µM)
- MIC 80% (ROB08702, Study LGC308175): 0.12 µg/mL (≈ 0.162 µM)
- MIC 100% (ROB08702, Study LGC308175): 64 µg/mL (≈ 86.5 µM)
- MIC 80% (ROB08702, Study ROC010): 0.25 µg/mL (≈ 0.338 µM)
- MIC 100% (ROB08702, Study ROC010): 32 µg/mL (≈ 43.3 µM)
- MIC 80% (ROB08702, Study ROC012): 0.12 µg/mL (≈ 0.162 µM)
- MIC 100% (ROB08702, Study ROC012): 64 µg/mL (≈ 86.5 µM)
- MIC 80% (ROB08703, Study LGC281440): 0.25 µg/mL (≈ 0.338 µM)
- MIC 100% (ROB08703, Study LGC281440): 16 µg/mL (≈ 21.6 µM)
- MIC 80% (ROB08703, Study LGC282160): 0.25 µg/mL (≈ 0.338 µM)
- MIC 100% (ROB08703, Study LGC282160): 64 µg/mL (≈ 86.5 µM)
- MIC 80% (ROB08703, Study LGC284879): 0.5 µg/mL (≈ 0.676 µM)
- MIC 100% (ROB08703, Study LGC284879): >64 µg/mL
- MIC 80% (ROB08703, Study LGC285582): 0.25 µg/mL (≈ 0.338 µM)
- MIC 100% (ROB08703, Study LGC285582): 64 µg/mL (≈ 86.5 µM)
- MIC 80% (ROB08703, Study LGC286210): 0.25 µg/mL (≈ 0.338 µM)
- MIC 100% (ROB08703, Study LGC286210): 64 µg/mL (≈ 86.5 µM)
- MIC 80% (ROB08703, Study LGC293598): 0.12 µg/mL (≈ 0.162 µM)
- MIC 100% (ROB08703, Study LGC293598): >64 µg/mL
- MIC 80% (ROB08703, Study LGC294355): >64 µg/mL
- MIC 100% (ROB08703, Study LGC294355): >64 µg/mL
- MIC 80% (ROB08703, Study LGC295147): 0.25 µg/mL (≈ 0.338 µM)
- MIC 100% (ROB08703, Study LGC295147): 64 µg/mL (≈ 86.5 µM)
- MIC 80% (ROB08703, Study LGC296813): 0.5 µg/mL (≈ 0.676 µM)
- MIC 100% (ROB08703, Study LGC296813): 64 µg/mL (≈ 86.5 µM)
- MIC 80% (ROB08703, Study LGC299544): 0.5 µg/mL (≈ 0.676 µM)
- MIC 100% (ROB08703, Study LGC299544): 64 µg/mL (≈ 86.5 µM)
- MIC 80% (ROB08703, Study LGC301026): 0.25 µg/mL (≈ 0.338 µM)
- MIC 100% (ROB08703, Study LGC301026): 64 µg/mL (≈ 86.5 µM)
- MIC 80% (ROB08703, Study LGC308175): 0.25 µg/mL (≈ 0.338 µM)
- MIC 100% (ROB08703, Study LGC308175): 64 µg/mL (≈ 86.5 µM)
- MIC 80% (ROB08703, Study ROC010): 0.5 µg/mL (≈ 0.676 µM)
- MIC 100% (ROB08703, Study ROC010): 0.5 µg/mL (≈ 0.676 µM)
- MIC 80% (ROB08703, Study ROC012): 0.25 µg/mL (≈ 0.338 µM)
- MIC 100% (ROB08703, Study ROC012): 64 µg/mL (≈ 86.5 µM)
- MIC 80% (ROB08704, Study LGC281440): 0.5 µg/mL (≈ 0.676 µM)
- MIC 100% (ROB08704, Study LGC281440): 16 µg/mL (≈ 21.6 µM)
- MIC 80% (ROB08704, Study LGC282160): 0.25 µg/mL (≈ 0.338 µM)
- MIC 100% (ROB08704, Study LGC282160): 64 µg/mL (≈ 86.5 µM)
- MIC 80% (ROB08704, Study LGC284879): 0.5 µg/mL (≈ 0.676 µM)
- MIC 100% (ROB08704, Study LGC284879): >64 µg/mL
- MIC 80% (ROB08704, Study LGC285582): 0.25 µg/mL (≈ 0.338 µM)
- MIC 100% (ROB08704, Study LGC285582): 64 µg/mL (≈ 86.5 µM)
- MIC 80% (ROB08704, Study LGC286210): 0.5 µg/mL (≈ 0.676 µM)
- MIC 100% (ROB08704, Study LGC286210): 32 µg/mL (≈ 43.3 µM)
- MIC 80% (ROB08704, Study LGC293598): 0.5 µg/mL (≈ 0.676 µM)
- MIC 100% (ROB08704, Study LGC293598): >64 µg/mL
- MIC 80% (ROB08704, Study LGC294355): 0.5 µg/mL (≈ 0.676 µM)
- MIC 100% (ROB08704, Study LGC294355): >64 µg/mL
- MIC 80% (ROB08704, Study LGC295147): 0.5 µg/mL (≈ 0.676 µM)
- MIC 100% (ROB08704, Study LGC295147): 64 µg/mL (≈ 86.5 µM)
- MIC 80% (ROB08704, Study LGC296813): 0.5 µg/mL (≈ 0.676 µM)
- MIC 100% (ROB08704, Study LGC296813): 32 µg/mL (≈ 43.3 µM)
- MIC 80% (ROB08704, Study LGC299544): 0.5 µg/mL (≈ 0.676 µM)
- MIC 100% (ROB08704, Study LGC299544): 64 µg/mL (≈ 86.5 µM)
- MIC 80% (ROB08704, Study LGC301026): 0.5 µg/mL (≈ 0.676 µM)
- MIC 100% (ROB08704, Study LGC301026): 64 µg/mL (≈ 86.5 µM)
- MIC 80% (ROB08704, Study LGC308175): 0.25 µg/mL (≈ 0.338 µM)
- MIC 100% (ROB08704, Study LGC308175): 32 µg/mL (≈ 43.3 µM)
- MIC 80% (ROB08704, Study ROC010): 0.5 µg/mL (≈ 0.676 µM)
- MIC 100% (ROB08704, Study ROC010): 1 µg/mL (≈ 1.35 µM)
- MIC 80% (ROB08704, Study ROC012): 0.25 µg/mL (≈ 0.338 µM)
- MIC 100% (ROB08704, Study ROC012): 32 µg/mL (≈ 43.3 µM)
- MIC 80% (ROB08705, Study LGC281440): ≤0.06 µg/mL
- MIC 100% (ROB08705, Study LGC281440): ≤0.06 µg/mL
- MIC 80% (ROB08705, Study LGC282160): 0.12 µg/mL (≈ 0.162 µM)
- MIC 100% (ROB08705, Study LGC282160): 32 µg/mL (≈ 43.3 µM)
- MIC 80% (ROB08705, Study LGC284879): ≤0.06 µg/mL
- MIC 100% (ROB08705, Study LGC284879): 0.12 µg/mL (≈ 0.162 µM)
- MIC 80% (ROB08705, Study LGC285582): ≤0.06 µg/mL
- MIC 100% (ROB08705, Study LGC285582): ≤0.06 µg/mL
- MIC 80% (ROB08705, Study LGC286210): ≤0.06 µg/mL
- MIC 100% (ROB08705, Study LGC286210): ≤0.06 µg/mL
- MIC 80% (ROB08705, Study LGC293598): ≤0.06 µg/mL
